Reference: patent publication US20100227859A1, “TRICYCLIC COMPOUNDS AS MATRIX METALLOPROTEINASE INHIBITORS” (priority 2007, published 2010)

biological target: purified human MMP-12 enzyme (Homo sapiens, UniProt P39900); test: MMP-12 FRET assay; format: biochemical; details: substrate 20 μM, room temperature
Outline: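 Enzyme pre-incubated 30 min at room temperature with compound in 50 mM HEPES pH 7.4, 100 mM NaCl, 5 mM CaCl2, 0.005% Brij-35, 10% DMSO final. Reaction started with 20 μM MCA-Pro-Leu-Gly-Leu-Dpa(DNP)-Ala-Arg, and initial cleavage rate read over 30 min (λex 325, λem 395 nm). IC50 from slope-factor inhibition fit.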

Chain of purified human MMP-12 enzyme (P39900 106-470): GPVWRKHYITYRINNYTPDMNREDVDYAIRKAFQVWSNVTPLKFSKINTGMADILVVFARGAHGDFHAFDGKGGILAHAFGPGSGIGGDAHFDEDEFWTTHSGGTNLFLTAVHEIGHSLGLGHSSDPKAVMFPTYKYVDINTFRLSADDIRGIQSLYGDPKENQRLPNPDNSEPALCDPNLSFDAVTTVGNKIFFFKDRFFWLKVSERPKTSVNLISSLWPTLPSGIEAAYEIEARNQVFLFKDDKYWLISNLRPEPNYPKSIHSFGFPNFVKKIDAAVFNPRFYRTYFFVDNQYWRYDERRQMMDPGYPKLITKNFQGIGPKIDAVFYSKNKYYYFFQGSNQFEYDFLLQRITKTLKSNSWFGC

Compared with `CC(C)[C@H](NS(=O)(=O)c1ccc2c(c1)oc1ccc(-c3nc(-c4ccc(C(F)(F)F)cc4)cs3)cc12)C(=O)O` [Compound 283, (S)-3-methyl-2-(8-(4-(4-(trifluoromethyl)phenyl)thiazol-2-yl)dibenzo[b,d]furan-3-sulfonamido)butanoic acid], `CC(C)[C@H](NS(=O)(=O)c1ccc2c(c1)oc1ccc(-c3nc(-c4ccc(F)cc4)cs3)cc12)C(=O)O` [Compound 284, (S)-2-(8-(4-(4-fluorophenyl)thiazol-2-yl)dibenzo[b,d]furan-3-sulfonamido)-3-methylbutanoic acid] is higher in IC50: under 1.5 nM for the first, 18 nM for the second.

Compared with `CC(C)[C@@H](NS(=O)(=O)c1ccc2sc3cc(-c4nccs4)ccc3c2c1)C(=O)O` [Compound 285, (R)-3-methyl-2-(7-(thiazol-2-yl)dibenzo[b,d]thiophene-2-sulfonamido)butanoic acid], `CC(C)[C@@H](NS(=O)(=O)c1ccc2sc3cc(-c4nc5ccccc5s4)ccc3c2c1)C(=O)O` [Compound 286, (R)-2-(7-(benzo[d]thiazol-2-yl)dibenzo[b,d]thiophene-2-sulfonamido)-3-methylbutanoic acid] is 1.7-fold lower in IC50: 220 nM for the first, 130 nM for the second. The second is the more potent here.

Compared with `CC(C)[C@@H](NS(=O)(=O)c1ccc2sc3cc(-c4ccco4)ccc3c2c1)C(=O)O` [Compound 287, (R)-2-(7-(furan-2-yl)dibenzo[b,d]thiophene-2-sulfonamido)-3-methylbutanoic acid], `CC(C)[C@@H](NS(=O)(=O)c1ccc2sc3cc(-c4ccc(Cl)o4)ccc3c2c1)C(=O)O` [Compound 288, (R)-2-(7-(5-chlorofuran-2-yl)dibenzo[b,d]thiophene-2-sulfonamido)-3-methylbutanoic acid] is 1.6-fold higher in IC50: 70 nM for the first, 110 nM for the second. The first is the more potent here.

Going from `CC(C)[C@@H](NS(=O)(=O)c1ccc2oc3cc(-c4ccc(-c5ccccc5)s4)ccc3c2c1)C(=O)O` [Compound 289, (R)-3-methyl-2-(7-(5-phenylthiophen-2-yl)dibenzo[b,d]furan-2-sulfonamido)butanoic acid] to `CC(C)[C@@H](NS(=O)(=O)c1ccc2oc3cc(-c4ccc(Cl)o4)ccc3c2c1)C(=O)O` [Compound 290, (R)-2-(7-(5-chlorofuran-2-yl)dibenzo[b,d]furan-2-sulfonamido)-3-methylbutanoic acid], the IC50 falls from 9.1 nM to 4.4 nM (2.1-fold). The second is the more potent here.

Going from `CC(C)[C@@H](NS(=O)(=O)c1ccc2oc3cc(-c4nccs4)ccc3c2c1)C(=O)O` [Compound 291, (R)-3-methyl-2-(7-(thiazol-2-yl)dibenzo[b,d]furan-2-sulfonamido)butanoic acid] to `Cc1nnc(-c2ccc3c(c2)oc2ccc(S(=O)(=O)N[C@@H](C(=O)O)C(C)C)cc23)s1` [Compound 292, (R)-3-methyl-2-(7-(5-methyl-1,3,4-thiadiazol-2-yl)dibenzo[b,d]furan-2-sulfonamido)butanoic acid], the IC50 rises from 5.2 nM to 43 nM (8.3-fold). The first is the more potent here.

First: CC(C)[C@@H](NS(=O)(=O)c1ccc2oc3cc(-c4nc5ccccc5s4)ccc3c2c1)C(=O)O [Compound 293, (R)-2-(7-(benzo[d]thiazol-2-yl)dibenzo[b,d]furan-2-sulfonamido)-3-methylbutanoic acid]
Second: CC(C)[C@@H](NS(=O)(=O)c1ccc2oc3cc(-c4nc5ccccc5o4)ccc3c2c1)C(=O)O [Compound 294, (R)-2-(7-(benzo[d]oxazol-2-yl)dibenzo[b,d]furan-2-sulfonamido)-3-methylbutanoic acid]
The IC50 of the first is 2.2-fold higher: 21 nM for the first, 9.5 nM for the second. The second is the more potent here.

Going from `CC(C)[C@@H](NS(=O)(=O)c1ccc2oc3cc(-c4nc(C(F)(F)F)c(Cl)s4)ccc3c2c1)C(=O)O` [Compound 295, (R)-2-(7-(5-chloro-4-(trifluoromethyl)thiazol-2-yl)dibenzo[b,d]furan-2-sulfonamido)-3-methylbutanoic acid] to `COc1ccc2nc(-c3ccc4c(c3)oc3ccc(S(=O)(=O)N[C@@H](C(=O)O)C(C)C)cc34)sc2c1` [Compound 296, (R)-2-(7-(6-methoxybenzo[d]thiazol-2-yl)dibenzo[b,d]furan-2-sulfonamido)-3-methylbutanoic acid], the IC50 falls from 15 nM to 3.1 nM (4.8-fold). The second is the more potent here.

Compared with `CC(C)[C@@H](NS(=O)(=O)c1ccc2oc3cc(-c4nc5ccc(F)cc5s4)ccc3c2c1)C(=O)O` [Compound 297, (R)-2-(7-(6-fluorobenzo[d]thiazol-2-yl)dibenzo[b,d]furan-2-sulfonamido)-3-methylbutanoic acid], `Cc1ccc2nc(-c3ccc4c(c3)oc3ccc(S(=O)(=O)N[C@@H](C(=O)O)C(C)C)cc34)sc2c1` [Compound 298, (R)-3-methyl-2-(7-(6-methylbenzo[d]thiazol-2-yl)dibenzo[b,d]furan-2-sulfonamido)butanoic acid] is 3.4-fold higher in IC50: 2.2 nM for the first, 7.4 nM for the second. The first is the more potent here.

Compared with `CC(C)[C@@H](NS(=O)(=O)c1ccc2oc3cc(-c4nc5c(F)cccc5s4)ccc3c2c1)C(=O)O` [Compound 299, (R)-2-(7-(4-fluorobenzo[d]thiazol-2-yl)dibenzo[b,d]furan-2-sulfonamido)-3-methylbutanoic acid], `CC(C)[C@@H](NS(=O)(=O)c1ccc2oc3cc(-c4nc5c(F)c(F)c(F)cc5s4)ccc3c2c1)C(=O)O` [Compound 300, (R)-3-methyl-2-(7-(4,5,6-trifluorobenzo[d]thiazol-2-yl)dibenzo[b,d]furan-2-sulfonamido)butanoic acid] is 3.4-fold higher in IC50: 15 nM for the first, 51 nM for the second. The first is the more potent here.

Compared with `CC(C)[C@@H](NS(=O)(=O)c1ccc2oc3cc(-c4nc5ccc(OC(F)(F)F)cc5s4)ccc3c2c1)C(=O)O` [Compound 301, (R)-3-methyl-2-(7-(6-(trifluoromethoxy)benzo[d]thiazol-2-yl)dibenzo[b,d]furan-2-sulfonamido)butanoic acid], `CC(C)[C@@H](NS(=O)(=O)c1ccc2oc3cc(-c4nc5ccc(C(F)(F)F)cc5s4)ccc3c2c1)C(=O)O` [Compound 302, (R)-3-methyl-2-(7-(6-(trifluoromethyl)benzo[d]thiazol-2-yl)dibenzo[b,d]furan-2-sulfonamido)butanoic acid] is 2.8-fold lower in IC50: 78 nM for the first, 28 nM for the second. The second is the more potent here.

Going from `C#Cc1ccc2oc3cc(S(=O)(=O)N[C@H](C(=O)O)C(C)C)ccc3c2c1` [Compound 303, (S)-2-(8-ethynyldibenzo[b,d]furan-3-sulfonamido)-3-methylbutanoic acid] to `CC(C)[C@H](NS(=O)(=O)c1ccc2c(c1)sc1cc(-c3ccc(Cl)s3)ccc12)C(=O)O` [Compound 304, (S)-2-(7-(5-chlorothiophen-2-yl)dibenzo[b,d]thiophene-3-sulfonamido)-3-methylbutanoic acid], the IC50 rises from under 1.5 nM to 1.5 nM.

First: Cc1nc(-c2ccc3oc4cc(S(=O)(=O)N[C@H](C(=O)O)C(C)C)ccc4c3c2)sc1C [Compound 305, (S)-2-(8-(4,5-dimethylthiazol-2-yl)dibenzo[b,d]furan-3-sulfonamido)-3-methylbutanoic acid]
Second: CC(C)[C@H](NS(=O)(=O)c1ccc2c(c1)oc1ccc(-c3nc4c(s3)CCCC4)cc12)C(=O)O [Compound 307, (S)-3-methyl-2-(8-(4,5,6,7-tetrahydrobenzo[d]thiazol-2-yl)dibenzo[b,d]furan-3-sulfonamido)butanoic acid]
The IC50 of the first is higher: 1.6 nM for the first, under 1.5 nM for the second.

`CC(C)[C@H](NS(=O)(=O)c1ccc2c(c1)oc1ccc(-c3ccc4c(c3)OCO4)cc12)C(=O)O` [Compound 308, (S)-2-(8-(benzo[d][1,3]dioxol-5-yl)dibenzo[b,d]furan-3-sulfonamido)-3-methylbutanoic acid] and `CC(C)[C@H](NS(=O)(=O)c1ccc2c(c1)oc1ccc(-c3ccccc3)cc12)C(=O)O` [Compound 309, (S)-3-methyl-2-(8-phenyldibenzo[b,d]furan-3-sulfonamido)butanoic acid] cannot be ordered by IC50: under 1.5 nM for the first, under 1.5 nM for the second.

Compared with `COc1ccc(-c2ccc3oc4cc(S(=O)(=O)N[C@H](C(=O)O)C(C)C)ccc4c3c2)cc1` [Compound 310, (S)-2-(8-(4-methoxyphenyl)dibenzo[b,d]furan-3-sulfonamido)-3-methylbutanoic acid], `CC(C)[C@H](NS(=O)(=O)c1ccc2c(c1)oc1ccc(-c3ccc(C(F)(F)F)cc3)cc12)C(=O)O` [Compound 311, (S)-3-methyl-2-(8-(4-(trifluoromethyl)phenyl)dibenzo[b,d]furan-3-sulfonamido)butanoic acid] is higher in IC50: under 1.5 nM for the first, 2 nM for the second.

Going from `CC(C)[C@H](NS(=O)(=O)c1ccc2c(c1)sc1cc(-c3ccccc3)ccc12)C(=O)O` [Compound 313, (S)-3-methyl-2-(7-phenyldibenzo[b,d]thiophene-3-sulfonamido)butanoic acid] to `CC(C)[C@@H](NS(=O)(=O)c1ccc2c(c1)sc1cc(-c3ccccc3)ccc12)C(=O)O` [Compound 314, (R)-3-methyl-2-(7-phenyldibenzo[b,d]thiophene-3-sulfonamido)butanoic acid], the IC50 rises from under 1.5 nM to 2.6 nM. The first is the more potent here.

Going from “(R)-2-(7-(5-ethyl-1,2,4-oxadiazol-3-yl)dibenzo[b,d]furan-2-sulfonamido)-3-methylbutanoic acid [Compound 140]” to “(S)-3-methyl-2-(8-(5-((methylamino)methyl)furan-2-yl)dibenzo[b,d]furan-3-sulfonamido)butanoic acid [Compound 68]”, the IC50 rises from 3.8 nM to 13 nM (3.4-fold). The first is the more potent here.
